Results taken from ChEMBL document CHEMBL1212733, “Chemical genomics in Escherichia coli identifies an inhibitor of bacterial lipoprotein targeting” (Nat Chem Biol, 2009).
Converted amounts (≈) assume the structure as drawn. The source made the active and inactive calls. No cut-off for these calls is given here.

Tests used:
Pseudomonas aeruginosa [1] = experiment: Antibacterial activity against multidrug-resistant Pseudomonas aeruginosa PS37619 after 16 hrs by microbroth dilution method; assay type: functional; conditions: PS37619, 16 h
Bacillus subtilis = experiment: Antibacterial activity against Bacillus subtilis 168 after 16 hrs by microbroth dilution method; assay type: functional; conditions: subsp. subtilis str. 168, 16 h
Pseudomonas aeruginosa [2] = experiment: Antibacterial activity against multidrug-resistant Pseudomonas aeruginosa PAE349 after 16 hrs by microbroth dilution method; assay type: functional; conditions: PAE349, 16 h
Staphylococcus aureus = experiment: Antibacterial activity against Staphylococcus aureus after 16 hrs by microbroth dilution method; assay type: functional
[3] = target: T1, Outer membrane protein TolC (Escherichia coli (strain K12)) (UniProt P02930); experiment: Inhibition of IPTG-stimulated Escherichia coli K-12 tolC at 8 fold MIC by microarray analysis
T1 sequence (whole entry): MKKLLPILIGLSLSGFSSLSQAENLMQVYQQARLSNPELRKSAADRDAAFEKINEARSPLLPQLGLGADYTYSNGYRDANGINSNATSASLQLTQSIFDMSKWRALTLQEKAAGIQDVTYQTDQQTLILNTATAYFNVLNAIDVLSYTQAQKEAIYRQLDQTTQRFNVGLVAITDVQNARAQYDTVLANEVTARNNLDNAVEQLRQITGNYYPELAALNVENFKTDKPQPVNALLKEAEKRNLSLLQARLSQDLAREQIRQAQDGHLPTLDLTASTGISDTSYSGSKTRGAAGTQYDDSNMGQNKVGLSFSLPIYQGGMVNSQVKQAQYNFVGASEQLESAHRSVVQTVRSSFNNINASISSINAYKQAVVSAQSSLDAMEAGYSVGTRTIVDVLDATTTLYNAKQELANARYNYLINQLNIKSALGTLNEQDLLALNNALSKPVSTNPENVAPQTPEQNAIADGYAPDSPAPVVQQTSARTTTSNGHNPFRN

Burkholderia cepacia = experiment: Antibacterial activity against Burkholderia cepacia B154408 after 16 hrs by microbroth dilution method; assay type: functional; conditions: B154408, 16 h
[4] = target: T1, Outer membrane protein TolC (Escherichia coli (strain K12)); experiment: Inhibition of IPTG-stimulated Escherichia coli K-12 tolC at 16 fold MIC by microarray analysis
Pseudomonas aeruginosa [5] = experiment: Antibacterial activity against multidrug-resistant Pseudomonas aeruginosa PS8539204 after 16 hrs by microbroth dilution method; assay type: functional; conditions: PS8539204, 16 h
[6] = target: T2, Outer-membrane lipoprotein carrier protein (Escherichia coli (strain K12)) (UniProt P61316); experiment: Inhibition of IPTG-stimulated Escherichia coli K-12 lolA at 16 fold MIC after 16 hrs by spectrophotometry
T2 sequence (whole entry): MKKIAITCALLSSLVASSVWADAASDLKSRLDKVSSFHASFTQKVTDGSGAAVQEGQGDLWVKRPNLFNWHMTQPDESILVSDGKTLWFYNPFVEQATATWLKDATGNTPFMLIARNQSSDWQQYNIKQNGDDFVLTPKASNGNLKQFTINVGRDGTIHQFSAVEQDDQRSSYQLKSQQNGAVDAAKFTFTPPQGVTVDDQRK

[7] = test system: Stenotrophomonas maltophilia; experiment: Antibacterial activity against Stenotrophomonas maltophilia B22020 after 16 hrs by microbroth dilution method; assay type: functional; conditions: B22020, 16 h
Pseudomonas aeruginosa [8] = experiment: Antibacterial activity against multidrug-resistant Pseudomonas aeruginosa PS225 after 16 hrs by microbroth dilution method; assay type: functional; conditions: PS225, 16 h
Pseudomonas aeruginosa [9] = experiment: Antibacterial activity against multidrug-resistant Pseudomonas aeruginosa PS8534624 after 16 hrs by microbroth dilution method; assay type: functional; conditions: PS8534624, 16 h
Candida albicans = experiment: Antifungal activity against Candida albicans after 16 hrs by microbroth dilution method; assay type: functional
[10] = target: T2, Outer-membrane lipoprotein carrier protein (Escherichia coli (strain K12)); experiment: Inhibition of IPTG-stimulated Escherichia coli K-12 lolA at 8 fold MIC by microarray analysis
Pseudomonas aeruginosa [11] = experiment: Antibacterial activity against multidrug-resistant Pseudomonas aeruginosa PS216 after 16 hrs by microbroth dilution method; assay type: functional; conditions: PS216, 16 h
[12] = target: T2, Outer-membrane lipoprotein carrier protein (Escherichia coli (strain K12)); experiment: Inhibition of IPTG-stimulated Escherichia coli K-12 lolA at 4 fold MIC by microarray analysis
Pseudomonas aeruginosa [13] = experiment: Antibacterial activity against multidrug-resistant Pseudomonas aeruginosa PAE302 after 16 hrs by microbroth dilution method; assay type: functional; conditions: PAE302, 16 h
Escherichia coli [14] = experiment: Antibacterial activity against Escherichia coli K-12 harboring lolA gene after 16 hrs by serial dilution method; assay type: functional; conditions: K-12, 16 h
Pseudomonas aeruginosa [15] = experiment: Antibacterial activity against multidrug-resistant Pseudomonas aeruginosa PS232 after 16 hrs by microbroth dilution method; assay type: functional; conditions: PS232, 16 h
Escherichia coli [16] = experiment: Induction of Lpp accumulation in inner membrane of Escherichia coli K-12 MG1655 at 320 ug/ml after 20 mins by autoradiography; assay type: functional, organism-based
Micrococcus luteus = experiment: Antibacterial activity against Micrococcus luteus after 16 hrs by microbroth dilution method; assay type: functional
Pseudomonas aeruginosa [17] = experiment: Antibacterial activity against multidrug-resistant Pseudomonas aeruginosa PS37834 after 16 hrs by microbroth dilution method; assay type: functional; conditions: PS37834, 16 h
Pseudomonas aeruginosa [18] = experiment: Antibacterial activity against Pseudomonas aeruginosa PAO1 after 16 hrs by microbroth dilution method; assay type: functional; conditions: PAO1, 16 h
[19] = target: Outer-membrane lipoprotein carrier protein (Escherichia coli (strain K12), UniProt P61316); experiment: Binding affinity to Escherichia coli K-12 lolA expressed in Escherichia coli BL21(AI) by NMR spectrometry
[20] = target: Multidrug efflux pump subunit AcrB (Escherichia coli (strain K12)) (UniProt P31224); experiment: Binding affinity to Escherichia coli K-12 MC1061 acrB assessed as decrease in susceptibility to compound efflux at 2 to 128 ug/ml after 16 hrs by plate reader assay
Sequence of Multidrug efflux pump subunit AcrB (Escherichia coli (strain K12)) (P31224 whole entry): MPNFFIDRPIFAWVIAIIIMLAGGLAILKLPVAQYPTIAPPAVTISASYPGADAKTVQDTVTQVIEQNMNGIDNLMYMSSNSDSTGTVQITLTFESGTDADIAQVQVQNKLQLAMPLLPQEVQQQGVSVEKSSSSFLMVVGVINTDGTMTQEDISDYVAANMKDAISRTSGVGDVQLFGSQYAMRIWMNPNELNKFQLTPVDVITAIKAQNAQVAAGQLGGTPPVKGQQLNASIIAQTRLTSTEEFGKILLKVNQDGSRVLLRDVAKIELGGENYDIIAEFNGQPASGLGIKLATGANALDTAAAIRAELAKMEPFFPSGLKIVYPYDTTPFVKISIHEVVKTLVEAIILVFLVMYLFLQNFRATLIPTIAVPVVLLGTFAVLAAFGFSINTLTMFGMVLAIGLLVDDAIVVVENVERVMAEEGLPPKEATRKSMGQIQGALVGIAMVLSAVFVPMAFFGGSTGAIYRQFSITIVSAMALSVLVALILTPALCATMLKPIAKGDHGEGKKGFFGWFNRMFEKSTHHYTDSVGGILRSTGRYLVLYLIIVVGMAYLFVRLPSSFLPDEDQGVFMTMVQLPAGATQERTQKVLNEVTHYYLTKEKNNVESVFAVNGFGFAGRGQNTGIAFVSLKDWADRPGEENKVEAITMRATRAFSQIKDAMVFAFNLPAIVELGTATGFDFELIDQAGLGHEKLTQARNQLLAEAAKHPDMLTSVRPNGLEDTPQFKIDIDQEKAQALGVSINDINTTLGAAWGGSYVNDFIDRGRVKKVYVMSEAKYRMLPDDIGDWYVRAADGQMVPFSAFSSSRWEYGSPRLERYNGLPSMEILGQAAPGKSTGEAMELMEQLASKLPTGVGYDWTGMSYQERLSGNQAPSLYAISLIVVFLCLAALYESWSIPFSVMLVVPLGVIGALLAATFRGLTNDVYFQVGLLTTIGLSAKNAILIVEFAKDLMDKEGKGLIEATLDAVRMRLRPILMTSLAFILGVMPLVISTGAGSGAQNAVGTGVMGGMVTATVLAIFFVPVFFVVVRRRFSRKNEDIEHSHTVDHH

[21] = target: T2, Outer-membrane lipoprotein carrier protein (Escherichia coli (strain K12)); experiment: Inhibition of IPTG-stimulated Escherichia coli K-12 lolA at 16 fold MIC by microarray analysis
Pseudomonas aeruginosa [22] = experiment: Antibacterial activity against multidrug-resistant Pseudomonas aeruginosa PAE252 after 16 hrs by microbroth dilution method; assay type: functional; conditions: PAE252, 16 h
Pseudomonas aeruginosa [23] = experiment: Antibacterial activity against multidrug-resistant Pseudomonas aeruginosa PAE287 after 16 hrs by microbroth dilution method; assay type: functional; conditions: PAE287, 16 h
[24] = target: T1, Outer membrane protein TolC (Escherichia coli (strain K12)); experiment: Inhibition of IPTG-stimulated Escherichia coli K-12 tolC at 4 fold MIC by microarray analysis
Escherichia coli [25] = experiment: Antibacterial activity against Escherichia coli K-12 MG1655 after 16 hrs by microbroth dilution method; assay type: functional; conditions: K-12 MG1655, 16 h
Escherichia coli [26] = experiment: Induction of Lpp accumulation in inner membrane of Escherichia coli K-12 MG1655 at 320 ug/ml after 20 mins by SDS-PAGE; assay type: functional, organism-based
Escherichia coli [27] = experiment: Antibacterial activity against Escherichia coli ATCC 25922 after 16 hrs by microbroth dilution method; assay type: functional; conditions: ATCC 25922, 16 h
Pseudomonas aeruginosa [28] = experiment: Antibacterial activity against multidrug-resistant Pseudomonas aeruginosa PS364 after 16 hrs by microbroth dilution method; assay type: functional; conditions: PS364, 16 h
Pseudomonas aeruginosa [29] = experiment: Antibacterial activity against multidrug-resistant Pseudomonas aeruginosa PS36769 after 16 hrs by microbroth dilution method; assay type: functional; conditions: PS36769, 16 h
HeLa = experiment: Cytotoxicity against human HeLa cells after 24 hrs by Cell Titre-Glo luminescent assay; assay type: cell-based
Pseudomonas aeruginosa [30] = experiment: Antibacterial activity against multidrug-resistant Pseudomonas aeruginosa PS301 after 16 hrs by microbroth dilution method; assay type: functional; conditions: PS301, 16 h
Pseudomonas aeruginosa [31] = experiment: Antibacterial activity against multidrug-resistant Pseudomonas aeruginosa PAE231 after 16 hrs by microbroth dilution method; assay type: functional; conditions: PAE231, 16 h
Pseudomonas aeruginosa [32] = experiment: Antibacterial activity against multidrug-resistant Pseudomonas aeruginosa PS35823 after 16 hrs by microbroth dilution method; assay type: functional; conditions: PS35823, 16 h

COc1ccc(CCN2CN=C(SCc3ccc(Cl)cc3)NC2)cc1OC
MIC (Pseudomonas aeruginosa [1]): 128 µg/mL (≈ 315 µM)
MIC (Bacillus subtilis): > 256 µg/mL
MIC (Pseudomonas aeruginosa [2]): 4 µg/mL (≈ 9.85 µM)
MIC (Staphylococcus aureus): > 256 µg/mL
inhibition [3]: Active
MIC (Burkholderia cepacia): 128 µg/mL (≈ 315 µM)
inhibition [4]: Active
MIC (Pseudomonas aeruginosa [5]): 128 µg/mL (≈ 315 µM)
inhibition [6]: inactive
MIC [7]: 8 µg/mL (≈ 19.7 µM)
MIC (Pseudomonas aeruginosa [8]): 1 µg/mL (≈ 2.46 µM)
MIC (Pseudomonas aeruginosa [9]): 2 µg/mL (≈ 4.93 µM)
MIC (Candida albicans): > 256 µg/mL
inhibition [10]: Active
MIC (Pseudomonas aeruginosa [11]): 16 µg/mL (≈ 39.4 µM)
inhibition [12]: Active
MIC (Pseudomonas aeruginosa [13]): 4 µg/mL (≈ 9.85 µM)
MIC (Escherichia coli [14]): 8 µg/mL (≈ 19.7 µM)
MIC (Pseudomonas aeruginosa [15]): 4 µg/mL (≈ 9.85 µM)
Activity (Escherichia coli [16]): Active
MIC (Micrococcus luteus): > 256 µg/mL
MIC (Pseudomonas aeruginosa [17]): 16 µg/mL (≈ 39.4 µM)
MIC (Pseudomonas aeruginosa [18]): 4 µg/mL (≈ 9.85 µM)
Kd [19]: 7.5 µM
Activity [20]: Active
inhibition [21]: Active
MIC (Pseudomonas aeruginosa [22]): 2 µg/mL (≈ 4.93 µM)
MIC (Pseudomonas aeruginosa [23]): 4 µg/mL (≈ 9.85 µM)
inhibition [24]: Active
MIC (Escherichia coli [25]): 16 µg/mL (≈ 39.4 µM)
Activity (Escherichia coli [26]): Active
MIC (Escherichia coli [27]): 16 µg/mL (≈ 39.4 µM)
MIC (Pseudomonas aeruginosa [28]): 128 µg/mL (≈ 315 µM)
MIC (Pseudomonas aeruginosa [29]): 4 µg/mL (≈ 9.85 µM)
Activity (HeLa): > 256 µg/mL
MIC (Pseudomonas aeruginosa [30]): 256 µg/mL (≈ 631 µM)
MIC (Pseudomonas aeruginosa [31]): 16 µg/mL (≈ 39.4 µM)
MIC (Pseudomonas aeruginosa [32]): 4 µg/mL (≈ 9.85 µM)
